A word on the IC50: it is the concentration at which inhibition is half-maximal. In general, half-life refers to how long it takes for the measured level to halve. What is called inhibition is the drop in the measured response relative to a control, in per cent. Broadly, the LD50 is the dose at which mortality reaches 50%. The low end stands for a more toxic substance, the high end for a less toxic substance.

Results on 20 compounds are retold here after ChEMBL document CHEMBL1137799, “Bisbenzylisoquinoline alkaloids” (J Nat Prod, 1991).

In brackets after ≈: the same amount, converted by molar mass.

For data set [1], the target named is Dual specificity calcium/calmodulin-dependent 3',5'-cyclic nucleotide phosphodiesterase 1A (Homo sapiens, UniProt P54750). Description: Inhibition of calmodulin-dependent phosphodiesterase.
The nature of data set [2]: Inhibition of calmodulin-stimulated Ca2+/Mg2+ ATPase activity in human erythrocyte membrane. It counts as cell membranes.
The nature of data set [3]: Drug absorption in digestive tract of Wistar rat at 5 mg/kg, iv and po. It counts as ADME, organism-based. Particulars: in vivo, read-out: Drug uptake. The arrangement: dose 5 mg/kg, route oral.
Data set [4] is described as follows: Protein binding in Wistar rat serum at 5 mg/kg, iv and po. The arrangement: dose 5 mg/kg, route oral. Type of data set: ADME, organism-based. Particulars: read-out: PB (converted).
Data set [5] can be described thus: Half life in Wistar rat at 5 mg/kg, iv and po. The arrangement: dose 5 mg/kg, route oral. As to conditions: in vivo. Type of data set: ADME, organism-based.
The nature of data set [6]: Half life in Wistar rat testis at 5 mg/kg, iv and po. Type of data set: ADME, organism-based. The arrangement: dose 5 mg/kg, route oral.
In another data set the test system is Plasmodium falciparum. Kind of data set: Antimalarial activity against Plasmodium falciparum. Type of data set: functional, organism-based.
The test system of another data set is Homo sapiens. Description: Increase in N-methyl-curine-induced neuromuscular blocking in patient during endotracheal intubation administered through inhalation. Type of data set: functional, organism-based.
Data set [7] is described as follows: Inhibition of formyl-methionyl-leucyl-phenylalanine induced superoxide generation in PMNC. It counts as functional.
Data set [8] deals with Muscarinic acetylcholine receptor. Kind of data set: Displacement of [3H]QNB from rat brain muscarinic receptor. On the technique in general: Loss of bound radioactivity is the signal in a displacement assay; it reports binding, not function.
Data set [9] can be described thus: Inhibition of phorbol myristate acetate-induced superoxide anion production in mouse peritoneal exudate cells at 5 ug/ml. Type of data set: functional.
Data set [10] in a line: Inhibition of phorbol myristate acetate-induced superoxide anion production in mouse peritoneal exudate cells at 50 ug/ml. Type of data set: functional.
The species named for a further data set is Mus musculus. Kind of data set: Inhibition of 12-O-tetradecanoylphorbol-13-acetate-induced carcinogenic activity in mouse ear at 2 mg, applied locally. It counts as functional.
The nature of data set [11]: Toxicity in ip dosed rat. It counts as organism-based. Particulars: in vivo.

Chain of Dual specificity calcium/calmodulin-dependent 3',5'-cyclic nucleotide phosphodiesterase 1A (P54750 whole entry): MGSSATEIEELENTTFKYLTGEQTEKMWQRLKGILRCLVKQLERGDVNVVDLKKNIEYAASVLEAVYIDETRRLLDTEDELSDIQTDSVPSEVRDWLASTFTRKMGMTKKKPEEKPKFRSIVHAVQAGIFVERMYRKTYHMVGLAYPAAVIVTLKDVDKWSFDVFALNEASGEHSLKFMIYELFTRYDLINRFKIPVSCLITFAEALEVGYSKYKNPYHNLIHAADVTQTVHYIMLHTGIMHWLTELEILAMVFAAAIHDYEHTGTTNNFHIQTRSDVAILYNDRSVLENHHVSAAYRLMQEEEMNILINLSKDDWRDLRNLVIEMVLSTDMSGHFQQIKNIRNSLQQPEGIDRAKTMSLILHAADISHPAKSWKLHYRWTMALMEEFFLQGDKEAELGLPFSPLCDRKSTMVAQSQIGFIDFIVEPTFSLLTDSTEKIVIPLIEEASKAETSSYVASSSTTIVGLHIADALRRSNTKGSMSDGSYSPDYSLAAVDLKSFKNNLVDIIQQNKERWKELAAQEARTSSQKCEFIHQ

With `CCOCCCCOc1ccc2cc1Oc1ccc(cc1)C[C@H]1c3cc(c(OC)cc3CCN1C)Oc1c(OC)c(OC)cc3c1[C@@H](C2)N(C)CC3`, the IC50 in data set [1] and in data set [2] was 0.35 µM each time.
Take `COc1ccc2cc1Oc1ccc(cc1)C[C@H]1c3c(cc4c(c3Oc3cc5c(cc3OC)CCN(C)[C@@H]5C2)O[14CH2]O4)CCN1C`: the Fa in data set [3] amounted to 70%. Also, the fraction unbound in data set [4] is 0.26. Moreover, the half-life in [5] is 8 days; in data set [6] it was 36 days.
In turn, `COc1ccc2cc1Oc1ccc(cc1)CC1NCCc3cc(O)c4c(c31)Oc1c(OC)cc3c(c1O4)[C@H](C2)N(C)CC3` (stereo partly specified) yielded an IC50 in the data set on Plasmodium falciparum of 1.1 µg/mL (≈ 1.9 µM).
Turning to `FC(F)OC(F)(F)C(F)Cl` (stereo unspecified), the inhibition result in the data set with Homo sapiens was “Dose-dependent effect”.
The compound `COc1cc2c3cc1Oc1c(OC)c(OC)cc4c1[C@H](Cc1ccc(cc1)Oc1cc(ccc1O)C[C@H]3N(C)CC2)N(C)CC4` [AROMOLINE] displayed an IC50 in the data set with Plasmodium falciparum of 0.67 µg/mL (≈ 1.1 µM). In addition, the “inhibition (INH)” value in data set [7] was 63.1%.
Turning to `COc1cc2c3cc1Oc1c(OC)c(OC)cc4c1[C@@H](Cc1ccc(O)c(c1)Oc1ccc(cc1)C[C@@H]3N(C)CC2)N(C)CC4` [BERBAMINE], the results for the IC50 in data set [1] and in data set [2] were 22 µM and 60 µM, respectively. For the same compound, in [8], the Ki was found to be 1.9 ×10⁻⁷ M. Further, the “inhibition (INH)” value in data set [7] is 56.4%.
Turning to `COc1cc2c3cc1Oc1c4c(cc5c1[C@H](Cc1ccc(cc1)Oc1cc(ccc1O)C[C@H]3N(C)CC2)N(C)CC5)OCO4` [CEPHARANOLINE], the “inhibition (INH)” value in data set [7] is given as 56%.
Take `COc1ccc2cc1Oc1ccc(cc1)C[C@H]1c3c(cc4c(c3Oc3cc5c(cc3OC)CCN(C)[C@@H]5C2)OCO4)CCN1C` [CEPHARANTHINE]: 5 µg/mL produced 34% inhibition in data set [9]. The same compound gave an inhibition at 50 µg/mL in data set [10] of 85%. Further, the “inhibition (INH)” value in the data set filed under Mus musculus is given as 78%.
Compound `COc1cc2c3c4c1Oc1cc5c(cc1O4)[C@H](Cc1ccc(O)c(c1)Oc1ccc(cc1)C[C@@H]3N(C)CC2)N(C)CC5` [COCSULINE] showed an IC50 in the data set with Plasmodium falciparum of 15.6 µg/mL (≈ 27.7 µM).
Consider `COc1c2cc3c(c1OC)CCN(C)[C@@H]3Cc1ccc(cc1)Oc1cc3c(c(OC)c1OC)CCN(C)[C@@H]3Cc1ccc(cc1)O2` [CYCLEANINE], for which the “inhibition (INH)” value in data set [7] stood at 36.2%.
For `COc1cc2c(cc1OC)[C@@H](Cc1ccc(Oc3cc(C[C@@H]4c5cc(OC)c(OC)cc5CCN4C)ccc3O)cc1)N(C)CC2` [DAURICINE], the “inhibition (INH)” value in data set [7] is on record as 50.8%. In data set [11], this compound displayed an LD50 of 205 mg/kg.
With `COc1ccc2cc1Oc1ccc(cc1)C[C@H]1c3cc(c(OC)cc3CCN1C)Oc1c(OC)c(OC)cc3c1[C@H](C2)N(C)CC3` [FANCHININ], the Ki in [8] is recorded as 7.3 ×10⁻⁸ M.
As to `COc1ccc2cc1Oc1ccc(cc1)C[C@H]1c3cc(c(OC)cc3CCN1C)Oc1c(O)c(OC)cc3c1[C@H](C2)N(C)CC3` [FANGCHINOLINE], the “inhibition (INH)” value in [7] is given as 82.4%.
Same read-out and setting: to `COc1ccc2cc1Oc1ccc(cc1)C[C@H]1c3c(cc(OC)c(O)c3Oc3cc4c(cc3OC)CCN(C)[C@@H]4C2)CCN1C` [HOMOAROMOLINE] belongs 67%; to `COc1cc2c3cc1Oc1c(OC)c(OC)cc4c1C(=NCC4)Cc1ccc(cc1)Oc1cc(ccc1O)CC3N(C)CC2` (stereo unspecified) [HYPOEPISTEPHANINE], 34.1%; to `COc1ccc(C[C@@H]2c3cc(Oc4cc(C[C@@H]5c6cc(O)c(OC)cc6CCN5C)ccc4O)c(OC)cc3CCN2C)cc1` [ISOLIENSININE], 59.6%.
Still for that read-out and setting: next, `COc1ccc(C[C@@H]2c3cc(Oc4cc(C[C@@H]5c6cc(OC)c(OC)cc6CCN5C)ccc4O)c(OC)cc3CCN2C)cc1` [NEFERINE]: 63.6%.
On to `COc1cc2c3cc1Oc1c(O)c(OC)cc4c1[C@@H](Cc1ccc(O)c(c1)Oc1ccc(cc1)C[C@@H]3N(C)CC2)N(C)CC4` [OBAMEGINE], for which inhibition in the data set on Plasmodium falciparum was half-maximal at 0.51 µg/mL (≈ 0.858 µM) (IC50).
The same measure, in the same setting: next, `COc1ccc2cc1Oc1ccc(cc1)C[C@@H]1c3cc(c(OC)cc3CCN1C)Oc1c(OC)c(OC)cc3c1[C@@H](C2)N(C)CC3` [PHAEANTHINE]: 1.43 µg/mL (≈ 2.3 µM); `COc1cc2c3cc1Oc1c(OC)c(OC)cc4c1[C@@H](Cc1ccc(O)c(c1)Oc1ccc(cc1)C[C@H]3N(C)CC2)N(C)CC4` [PYCNAMINE]: 0.15 µg/mL (≈ 0.246 µM).
